From patent publication US9051250B2, “Polymorphs of N-malonyl-bis(N′-methyl-N′-thiobenzoylhydrazide)” (Synta Pharmaceuticals Corp., priority 2007, dated 2015)
Converted amounts (≈) assume the structure as drawn. Where two headings read alike, the source gives them in different places. Blank lines part the entries; values can stand above or below the molecule they belong to.

Key:
[1] = Stability study (appearance, HPLC, IR) in stability chambers; format: physicochemical; conditions: for % compd 1 / % compd 2: HPLC
Procedure: 100 mg±2% of compound 1 was weighed into each 20 mL scintillation vial. The vials were capped with appropriate caps and sealed with Parafilm to prevent moisture entrapment. Stability for the test compounds synthesized from different log was tested. Twelve vials for each lot were prepared and distributed into respective stability chambers to initiate their stability study according to the following protocol.
Stability of the test compound was determined by its appearance and by analytical methods such as HPLC and IR. The IR test was performed for all time points under the two conditions listed above using material in one vial.
Compound 1 contains trace amount of compound 2 shown below. The amounts of compound 1 and 2 present at each time point were analyzed by HPLC.

[2] = Reconstitution test in 50:50 Cremophor EL/Ethanol; format: physicochemical; conditions: 266 mg in 16.7 ml 50:50 Cremophor EL/Ethanol
Procedure: As used herein, the reconstitution time is measured in 50:50 Cremophor EL/ethanol solution at ambient temperature (e.g., 18-25° C.) The reconstitution time can be measure according to the procedure described in Example 7. For example, the reconstitution time is measured by dissolving 266 mg of compound 1 in 16.7 mL of 50:50 Cremophor EL/ethanol solution with manual shaking or mechanical shaking at a speed of 232-236 rpm.
50:50 Cremophor EL/Ethanol was prepared and filtered through a 0.45 μm filter and used for testing. 266 mg of compound 1 was weighed into a 50 mL glass vial with a rubber stopper. 16.7 ml of filtered 50:50 Cremophor EL/Ethanol solution was taken by a syringe and needle and added into the vial. The vial was shaken either manually, or on a mechanical shaker at a speed of 232-236 rpm. The reconstitution time was determined with three vials. At different time points, vials were subject to visual observation.

[3] = Solubility of Form A and Form D; format: physicochemical; conditions: shake time 24 hour; for solubility at 24 h: organic solvent or mixture, thermodynamic from solid
Sieve-cut test = format: physicochemical; conditions: 300 micron screen
Procedure: […] 5 g to 20 g samples were used, depending on the batch size. The mass and percentage of material collected in the receiver were measured.

[4] = system: stage IV metastatic melanoma; conditions: in combination with taxol, relative to patients treated with paclitaxel alone; cited from earlier work

SMILES: CN(NC(=O)CC(=O)NN(C)C(=S)c1ccccc1)C(=S)c1ccccc1 [Lot #1, N-malonyl-bis(N′-methyl-N′-thiobenzoylhydrazide)]
Appearance ([1]; 25° C./60% RH, 0 months): Pale-yellow
FT-IR ([1]; 25° C./60% RH, 0 months): Form D
Appearance ([1]; 25° C./60% RH, 1 month): Pale-yellow
FT-IR ([1]; 25° C./60% RH, 1 month): Form D
Appearance ([1]; 25° C./60% RH, 3 months): Pale-yellow
FT-IR ([1]; 25° C./60% RH, 3 months): Form D
Appearance ([1]; 25° C./60% RH, 6 months): Pale yellow
FT-IR ([1]; 25° C./60% RH, 6 months): Form D
Appearance ([1]; 25° C./60% RH, 9 months): Pale yellow
FT-IR ([1]; 25° C./60% RH, 9 months): Form D
Appearance ([1]; 25° C./60% RH, 12 months): Pale yellow
FT-IR ([1]; 25° C./60% RH, 12 months): Form D
Appearance ([1]; 40° C./75% RH, 0 months): Pale-
FT-IR ([1]; 40° C./75% RH, 0 months): Form D
Appearance ([1]; 40° C./75% RH, 0.5 months): Pale-yellow
FT-IR ([1]; 40° C./75% RH, 0.5 months): Form D
Appearance ([1]; 40° C./75% RH, 1 month): Pale-
FT-IR ([1]; 40° C./75% RH, 1 month): Form D
Appearance ([1]; 40° C./75% RH, 3 months): Pale-yellow
FT-IR ([1]; 40° C./75% RH, 3 months): Form D
Appearance ([1]; 40° C./75% RH, 6 months): Pale-
FT-IR ([1]; 40° C./75% RH, 6 months): Form D
% compd 1 ([1]; 25° C./60% RH, 0 months): 99.0%
% compd 2 ([1]; 25° C./60% RH, 0 months): 1.30%
% compd 1 ([1]; 25° C./60% RH, 1 month): 98.8%
% compd 2 ([1]; 25° C./60% RH, 1 month): 1.28%
% compd 1 ([1]; 25° C./60% RH, 3 months): 99.0%
% compd 2 ([1]; 25° C./60% RH, 3 months): 1.31%
% compd 1 ([1]; 25° C./60% RH, 6 months): 99.0%
% compd 2 ([1]; 25° C./60% RH, 6 months): 1.28%
% compd 1 ([1]; 25° C./60% RH, 9 months): 97.5%
% compd 2 ([1]; 25° C./60% RH, 9 months): 1.38%
% compd 1 ([1]; 25° C./60% RH, 12 months): 98.0%
% compd 2 ([1]; 25° C./60% RH, 12 months): 1.33%
% compd 1 ([1]; 40° C./75% RH, 0 months): 99.0%
% compd 2 ([1]; 40° C./75% RH, 0 months): 1.30%
% compd 1 ([1]; 40° C./75% RH, 0.5 months): 99.7%
% compd 2 ([1]; 40° C./75% RH, 0.5 months): 1.28%
% compd 1 ([1]; 40° C./75% RH, 1 month): 95.8%
% compd 2 ([1]; 40° C./75% RH, 1 month): 1.28%
% compd 1 ([1]; 40° C./75% RH, 3 months): 98.9%
% compd 2 ([1]; 40° C./75% RH, 3 months): 1.33%
% compd 1 ([1]; 40° C./75% RH, 6 months): 98.4%
% compd 2 ([1]; 40° C./75% RH, 6 months): 1.31%

SMILES: CN(NC(=O)CC(=O)NN(C)C(=S)c1ccccc1)C(=S)c1ccccc1 [Crystal Habit 2, N-malonyl-bis(N′-methyl-N′-thiobenzoylhydrazide)]
Re-constitution time (min) for specific sieve-cut ([2]; 150 micron sieve-cut): less than or equal to 15 min

SMILES: CN(NC(=O)CC(=O)NN(C)C(=S)c1ccccc1)C(=S)c1ccccc1 [Form A, N-malonyl-bis(N′-methyl-N′-thiobenzoylhydrazide)]
solubility at 24 h ([3]; 50:50 Cremophor/ethanol, 50:50 Cremophor/EtOH, Vial1, read-out: Solubility in 50:50 Cre/EtOH, Vial1): 24400 µg/mL (≈ 60.8 mM)
solubility at 24 h ([3]; 50:50 Cremophor/ethanol, 50:50 Cremophor/EtOH, Vial2, read-out: Solubility in 50:50 Cre/EtOH, Vial2): 24300 µg/mL (≈ 60.6 mM)
solubility at 24 h ([3]; 50:50 Cremophor/ethanol, 50:50 Cremophor/EtOH, average of two vials, read-out: Solubility in 50:50 Cre/EtOH, Average): 24300 µg/mL (≈ 60.7 mM)
solubility at 24 h ([3]; ethanol, EtOH, Vial1, read-out: Solubility in EtOH, Vial1): 6280 µg/mL (≈ 15.7 mM)
solubility at 24 h ([3]; ethanol, EtOH, Vial2, read-out: Solubility in EtOH, Vial2): 6450 µg/mL (≈ 16.1 mM)
solubility at 24 h ([3]; ethanol, EtOH, average of two vials, read-out: Solubility in EtOH, Average): 6400 µg/mL (≈ 16 mM)
solubility at 24 h ([3]; ethyl acetate, EtOAc, Vial1, read-out: Solubility in EtOAc, Vial1): 4690 µg/mL (≈ 11.7 mM)
solubility at 24 h ([3]; ethyl acetate, EtOAc, Vial2, read-out: Solubility in EtOAc, Vial2): 4690 µg/mL (≈ 11.7 mM)
solubility at 24 h ([3]; ethyl acetate, EtOAc, average of two vials, read-out: Solubility in EtOAc, Average): 4700 µg/mL (≈ 11.7 mM)

SMILES: CN(NC(=O)CC(=O)NN(C)C(=S)c1ccccc1)C(=S)c1ccccc1 [compound 2]
% by weight that passed through a specific size screen, % (Sieve-cut test): Does not pass
Re-constitution time (min) for specific sieve-cut ([2]; 500 micron sieve-cut): >>25, 500 micron min

More lines, main results first:

Appearance ([1]; 25° C./60% RH, 0 months): Pale-yellow
FT-IR ([1]; 25° C./60% RH, 0 months): Form D
Appearance ([1]; 25° C./60% RH, 1 month): Pale-yellow
FT-IR ([1]; 25° C./60% RH, 1 month): Form D
Appearance ([1]; 25° C./60% RH, 3 months): Pale-yellow
FT-IR ([1]; 25° C./60% RH, 3 months): Form D
Appearance ([1]; 25° C./60% RH, 6 months): Pale-yellow
FT-IR ([1]; 25° C./60% RH, 6 months): Form D
Appearance ([1]; 25° C./60% RH, 9 months): Pale-yellow
FT-IR ([1]; 25° C./60% RH, 9 months): Form D
Appearance ([1]; 25° C./60% RH, 12 months): Pale-yellow
FT-IR ([1]; 25° C./60% RH, 12 months): Form D
Appearance ([1]; 40° C./75% RH, 0 months): Pale-
FT-IR ([1]; 40° C./75% RH, 0 months): Form D
Appearance ([1]; 40° C./75% RH, 0.5 months): Pale-yellow
FT-IR ([1]; 40° C./75% RH, 0.5 months): Form D
Appearance ([1]; 40° C./75% RH, 1 month): Pale-
FT-IR ([1]; 40° C./75% RH, 1 month): Form D
Appearance ([1]; 40° C./75% RH, 3 months): Pale-yellow
FT-IR ([1]; 40° C./75% RH, 3 months): Form D
Appearance ([1]; 40° C./75% RH, 6 months): Pale-
FT-IR ([1]; 40° C./75% RH, 6 months): Form D
% compd 1 ([1]; 25° C./60% RH, 0 months): 99.7%
% compd 2 ([1]; 25° C./60% RH, 0 months): 0.15%
% compd 1 ([1]; 25° C./60% RH, 1 month): 98.6%
% compd 2 ([1]; 25° C./60% RH, 1 month): 0.14%
% compd 1 ([1]; 25° C./60% RH, 3 months): 100.2%
% compd 2 ([1]; 25° C./60% RH, 3 months): 0.15%
% compd 1 ([1]; 25° C./60% RH, 6 months): 99.6%
% compd 2 ([1]; 25° C./60% RH, 6 months): 0.13%
% compd 1 ([1]; 25° C./60% RH, 9 months): 98.9%
% compd 2 ([1]; 25° C./60% RH, 9 months): 0.13%
% compd 1 ([1]; 25° C./60% RH, 12 months): 99.7%
% compd 2 ([1]; 25° C./60% RH, 12 months): 0.13%
% compd 1 ([1]; 40° C./75% RH, 0 months): 99.7%
% compd 2 ([1]; 40° C./75% RH, 0 months): 0.15%
% compd 1 ([1]; 40° C./75% RH, 0.5 months): 99.6%
% compd 2 ([1]; 40° C./75% RH, 0.5 months): 0.14%
% compd 1 ([1]; 40° C./75% RH, 1 month): 100.3%
% compd 2 ([1]; 40° C./75% RH, 1 month): 0.16%
% compd 1 ([1]; 40° C./75% RH, 3 months): 100.2%
% compd 2 ([1]; 40° C./75% RH, 3 months): 0.19%
% compd 1 ([1]; 40° C./75% RH, 6 months): 101.7%
% compd 2 ([1]; 40° C./75% RH, 6 months): 0.18%
SMILES: CN(NC(=O)CC(=O)NN(C)C(=S)c1ccccc1)C(=S)c1ccccc1 [Lot #2, N-malonyl-bis(N′-methyl-N′-thiobenzoylhydrazide)]

% by weight that passed through a specific size screen, % (Sieve-cut test): Does not pass
Re-constitution time (min) for specific sieve-cut ([2]; 500 micron sieve-cut): >>25, 500 micron min
SMILES: CN(NC(=O)CC(=O)NN(C)C(=S)c1ccccc1)C(=S)c1ccccc1 [compound 1, N-malonyl-bis(N′-methyl-N′-thiobenzoylhydrazide)]
time to progression [4]: increase the time to progression

Re-constitution time (min) for specific sieve-cut ([2]; 500 micron sieve-cut): greater than 25 min
SMILES: CN(NC(=O)CC(=O)NN(C)C(=S)c1ccccc1)C(=S)c1ccccc1 [Crystal Habit 1, N-malonyl-bis(N′-methyl-N′-thiobenzoylhydrazide)]

Solubility in 50:50 Cre/EtOH, Vial1 ([3]; 50:50 Cremophor/EtOH, Vial1): 42690 µg/mL (≈ 107 mM)
Solubility in 50:50 Cre/EtOH, Vial2 ([3]; 50:50 Cremophor/EtOH, Vial2): 42740 µg/mL (≈ 107 mM)
Solubility in 50:50 Cre/EtOH, Average ([3]; 50:50 Cremophor/EtOH, average of two vials): 42700 µg/mL (≈ 107 mM)
Solubility in EtOAc, Vial1 ([3]; EtOAc, Vial1): 7410 µg/mL (≈ 18.5 mM)
Solubility in EtOAc, Vial2 ([3]; EtOAc, Vial2): 7500 µg/mL (≈ 18.7 mM)
Solubility in EtOAc, Average ([3]; EtOAc, average of two vials): 7500 µg/mL (≈ 18.7 mM)
Solubility in EtOH, Vial1 ([3]; EtOH, Vial1): 9760 µg/mL (≈ 24.4 mM)
Solubility in EtOH, Vial2 ([3]; EtOH, Vial2): 9750 µg/mL (≈ 24.3 mM)
Solubility in EtOH, Average ([3]; EtOH, average of two vials): 9800 µg/mL (≈ 24.5 mM)
SMILES: CN(NC(=O)CC(=O)NN(C)C(=S)c1ccccc1)C(=S)c1ccccc1 [Form D, N-malonyl-bis(N′-methyl-N′-thiobenzoylhydrazide)]
